Among the data in the supplement of paper PMC12076712 are pIC50 values, retold here.

The pIC50 is the negative decadic logarithm of the IC50, by convention in mol/L. Low values mean a large IC50, high ones a small IC50.

Common to all, as to experiment: pIC50, kinobeads binding competition
In one assay the target is T1, ZAP70 (UniProt P43403).
T1 sequence (whole entry): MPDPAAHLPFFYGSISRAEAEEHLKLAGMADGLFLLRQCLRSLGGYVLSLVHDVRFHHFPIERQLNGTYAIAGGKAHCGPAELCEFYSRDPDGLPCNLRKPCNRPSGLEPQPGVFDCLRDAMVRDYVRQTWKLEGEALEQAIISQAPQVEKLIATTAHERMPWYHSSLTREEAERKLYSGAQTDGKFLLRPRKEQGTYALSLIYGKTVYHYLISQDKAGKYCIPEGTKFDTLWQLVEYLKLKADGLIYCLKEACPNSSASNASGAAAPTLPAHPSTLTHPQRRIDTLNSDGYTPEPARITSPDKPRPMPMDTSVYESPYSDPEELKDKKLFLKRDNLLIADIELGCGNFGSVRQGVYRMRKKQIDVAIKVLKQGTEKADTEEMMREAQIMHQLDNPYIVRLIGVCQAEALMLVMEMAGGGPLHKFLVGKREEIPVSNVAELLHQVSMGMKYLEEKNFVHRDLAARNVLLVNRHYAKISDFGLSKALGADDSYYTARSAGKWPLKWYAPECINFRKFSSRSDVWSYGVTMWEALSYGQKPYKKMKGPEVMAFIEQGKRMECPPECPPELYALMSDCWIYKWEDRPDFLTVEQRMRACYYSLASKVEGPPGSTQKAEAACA
Put shortly: (§1)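 Live Jurkat cells were treated with nine compound concentrations (top 30 μM, 1:4 steps) or DMSO for 60 min at 37 °C before lysis. Alternatively, Jurkat lysate or a 1:1:1:1 HEK293/K-562/HepG2/placenta lysate mix was incubated with nine concentrations (top 30 μM, 1:5 steps) for 60 min at 4 °C. Kinobeads-bound proteins were digested and quantified by TMT10 LC-MS/MS. pIC50 came from logistic dose-response fits (R drc package) of fold changes versus DMSO, in biological duplicates.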

Another assay concerns the target CAMK1D (UniProt Q8IU85). Put shortly: as §1
For the next assay, the target named is UniProt Q9H093. Particulars: cell material: Lysate mix. The procedure, abridged: as §1
In the next assay the target is RNASEL (UniProt Q05823). Particulars: cell material: Jurkat cells. The procedure, abridged: as §1
The target in the next assay is BLK (UniProt P51451). The procedure, abridged: as §1
The target of another assay is PAK1 (UniProt Q13153). Particulars: cell material: Jurkat cells. Put shortly: as §1
The target in a further assay is PIK3R4 (UniProt Q99570). Particulars: cell material: Jurkat cells. Put shortly: as §1
Another assay deals with RIPK3 (UniProt Q9Y572). Put shortly: as §1
The next assay concerns the target T2, RIOK1 (UniProt Q9BRS2).
T2 sequence (whole entry): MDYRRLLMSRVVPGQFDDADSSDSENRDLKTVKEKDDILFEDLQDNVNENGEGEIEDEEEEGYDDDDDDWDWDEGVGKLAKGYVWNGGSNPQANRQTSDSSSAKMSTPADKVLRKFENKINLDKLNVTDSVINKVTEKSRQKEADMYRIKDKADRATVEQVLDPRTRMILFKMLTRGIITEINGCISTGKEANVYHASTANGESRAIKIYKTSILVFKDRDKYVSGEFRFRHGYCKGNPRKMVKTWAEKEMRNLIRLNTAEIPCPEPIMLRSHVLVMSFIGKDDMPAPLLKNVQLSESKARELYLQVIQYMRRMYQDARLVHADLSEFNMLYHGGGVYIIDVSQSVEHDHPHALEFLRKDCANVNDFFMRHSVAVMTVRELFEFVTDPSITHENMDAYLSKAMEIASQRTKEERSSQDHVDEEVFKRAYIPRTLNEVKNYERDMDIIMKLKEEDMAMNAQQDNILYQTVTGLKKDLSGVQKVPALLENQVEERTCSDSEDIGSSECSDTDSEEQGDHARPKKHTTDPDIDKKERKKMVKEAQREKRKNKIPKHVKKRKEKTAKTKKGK
Put shortly: as §1

The next assay deals with T3, ITK (UniProt Q08881).
T3 sequence (whole entry): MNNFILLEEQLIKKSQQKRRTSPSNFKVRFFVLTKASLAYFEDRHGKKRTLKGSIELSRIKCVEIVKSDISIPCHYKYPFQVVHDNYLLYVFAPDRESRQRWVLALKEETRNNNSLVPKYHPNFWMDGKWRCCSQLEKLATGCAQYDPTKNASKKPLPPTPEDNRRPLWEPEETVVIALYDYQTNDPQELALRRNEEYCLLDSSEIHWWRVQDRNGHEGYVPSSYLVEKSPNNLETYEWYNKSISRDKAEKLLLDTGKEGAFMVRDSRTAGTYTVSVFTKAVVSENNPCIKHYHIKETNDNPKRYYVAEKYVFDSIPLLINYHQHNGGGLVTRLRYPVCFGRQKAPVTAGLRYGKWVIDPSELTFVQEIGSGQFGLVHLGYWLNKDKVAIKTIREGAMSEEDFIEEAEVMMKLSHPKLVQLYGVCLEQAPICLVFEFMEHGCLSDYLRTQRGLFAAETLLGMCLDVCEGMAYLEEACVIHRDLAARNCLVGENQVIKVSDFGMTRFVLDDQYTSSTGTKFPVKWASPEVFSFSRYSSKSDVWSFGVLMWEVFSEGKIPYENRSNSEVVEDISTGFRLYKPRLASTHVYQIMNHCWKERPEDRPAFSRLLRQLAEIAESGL
The procedure, abridged:
as §1

A further assay deals with UniProt O00506. Put shortly: as §1
In a further assay the target is T4, UHMK1 (UniProt Q8TAS1).
T4 sequence (whole entry): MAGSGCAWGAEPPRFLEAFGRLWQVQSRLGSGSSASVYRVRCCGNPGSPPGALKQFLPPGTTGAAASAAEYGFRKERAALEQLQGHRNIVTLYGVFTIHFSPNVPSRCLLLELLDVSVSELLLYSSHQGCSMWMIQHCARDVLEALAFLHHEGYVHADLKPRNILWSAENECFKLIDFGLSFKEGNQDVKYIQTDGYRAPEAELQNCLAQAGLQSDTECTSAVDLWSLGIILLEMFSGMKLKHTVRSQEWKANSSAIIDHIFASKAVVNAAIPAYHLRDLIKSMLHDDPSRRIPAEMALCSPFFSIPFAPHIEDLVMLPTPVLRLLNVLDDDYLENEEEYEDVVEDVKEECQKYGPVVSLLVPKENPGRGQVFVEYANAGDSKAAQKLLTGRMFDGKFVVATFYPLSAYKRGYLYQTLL
Particulars: cell material: Jurkat lysate. Put shortly:
as §1

Another assay has as its target TLK1 (UniProt Q9UKI8). Put shortly:
as §1

Where only a bound is given, the exact number is not on record here.

Sequence of BLK (P51451 whole entry, looked up): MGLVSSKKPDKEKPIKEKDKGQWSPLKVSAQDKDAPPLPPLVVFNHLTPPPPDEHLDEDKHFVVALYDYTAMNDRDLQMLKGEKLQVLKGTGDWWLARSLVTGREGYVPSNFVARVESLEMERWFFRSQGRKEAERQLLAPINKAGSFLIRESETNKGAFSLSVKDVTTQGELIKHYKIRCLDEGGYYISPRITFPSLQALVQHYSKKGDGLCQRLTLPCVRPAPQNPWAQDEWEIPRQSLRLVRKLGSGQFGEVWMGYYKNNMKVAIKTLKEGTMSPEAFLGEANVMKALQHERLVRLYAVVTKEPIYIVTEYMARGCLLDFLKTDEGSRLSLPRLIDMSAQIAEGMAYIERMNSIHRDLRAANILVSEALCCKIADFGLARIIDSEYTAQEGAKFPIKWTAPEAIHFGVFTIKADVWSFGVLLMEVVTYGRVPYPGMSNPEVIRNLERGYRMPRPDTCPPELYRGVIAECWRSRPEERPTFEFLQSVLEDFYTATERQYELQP
Sequence of RIPK3 (Q9Y572 whole entry, looked up): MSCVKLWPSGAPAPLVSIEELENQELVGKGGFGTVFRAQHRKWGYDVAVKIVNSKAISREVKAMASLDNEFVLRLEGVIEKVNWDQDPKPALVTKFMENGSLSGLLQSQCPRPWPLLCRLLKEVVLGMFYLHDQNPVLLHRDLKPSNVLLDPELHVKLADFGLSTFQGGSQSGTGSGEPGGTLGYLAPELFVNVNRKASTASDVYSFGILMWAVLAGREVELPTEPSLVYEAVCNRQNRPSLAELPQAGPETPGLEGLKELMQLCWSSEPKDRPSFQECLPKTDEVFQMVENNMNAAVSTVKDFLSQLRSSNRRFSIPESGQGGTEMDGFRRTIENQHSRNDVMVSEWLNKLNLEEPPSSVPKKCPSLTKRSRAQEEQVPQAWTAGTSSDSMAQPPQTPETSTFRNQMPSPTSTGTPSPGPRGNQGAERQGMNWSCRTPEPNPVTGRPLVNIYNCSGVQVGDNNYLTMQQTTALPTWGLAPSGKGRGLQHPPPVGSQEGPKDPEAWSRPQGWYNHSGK
Sequence of CAMK1D (Q8IU85 whole entry, looked up): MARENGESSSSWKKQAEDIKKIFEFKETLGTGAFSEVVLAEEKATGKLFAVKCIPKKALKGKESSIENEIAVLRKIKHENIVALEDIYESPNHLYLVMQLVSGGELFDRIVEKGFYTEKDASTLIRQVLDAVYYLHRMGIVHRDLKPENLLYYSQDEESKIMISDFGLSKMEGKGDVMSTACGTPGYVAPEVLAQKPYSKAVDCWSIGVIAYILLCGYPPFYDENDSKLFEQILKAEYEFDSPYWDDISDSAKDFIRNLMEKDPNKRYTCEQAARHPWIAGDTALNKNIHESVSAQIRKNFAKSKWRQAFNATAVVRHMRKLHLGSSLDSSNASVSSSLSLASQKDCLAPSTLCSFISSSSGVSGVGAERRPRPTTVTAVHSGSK
Sequence of RNASEL (Q05823 whole entry): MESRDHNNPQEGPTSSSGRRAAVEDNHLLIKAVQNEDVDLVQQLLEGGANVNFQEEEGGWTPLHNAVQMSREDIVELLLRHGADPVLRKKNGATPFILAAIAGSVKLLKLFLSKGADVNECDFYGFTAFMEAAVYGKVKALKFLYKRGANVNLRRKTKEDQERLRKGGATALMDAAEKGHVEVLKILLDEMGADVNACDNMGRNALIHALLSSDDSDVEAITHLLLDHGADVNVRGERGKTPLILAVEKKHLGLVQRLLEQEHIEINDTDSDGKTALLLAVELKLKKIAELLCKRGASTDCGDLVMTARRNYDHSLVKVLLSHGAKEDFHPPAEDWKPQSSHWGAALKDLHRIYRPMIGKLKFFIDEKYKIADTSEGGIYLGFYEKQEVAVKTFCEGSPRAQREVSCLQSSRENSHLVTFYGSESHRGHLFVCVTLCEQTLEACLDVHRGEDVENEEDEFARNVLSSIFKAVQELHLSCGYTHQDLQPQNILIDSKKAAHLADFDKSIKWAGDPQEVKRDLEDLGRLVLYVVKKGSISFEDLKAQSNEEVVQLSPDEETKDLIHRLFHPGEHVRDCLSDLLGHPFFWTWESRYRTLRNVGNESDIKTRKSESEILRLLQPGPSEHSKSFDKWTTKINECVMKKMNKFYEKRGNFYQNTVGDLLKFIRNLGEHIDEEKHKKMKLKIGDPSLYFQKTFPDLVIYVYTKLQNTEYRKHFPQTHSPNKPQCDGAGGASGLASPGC
Sequence of UniProt O00506 (O00506 whole entry, looked up): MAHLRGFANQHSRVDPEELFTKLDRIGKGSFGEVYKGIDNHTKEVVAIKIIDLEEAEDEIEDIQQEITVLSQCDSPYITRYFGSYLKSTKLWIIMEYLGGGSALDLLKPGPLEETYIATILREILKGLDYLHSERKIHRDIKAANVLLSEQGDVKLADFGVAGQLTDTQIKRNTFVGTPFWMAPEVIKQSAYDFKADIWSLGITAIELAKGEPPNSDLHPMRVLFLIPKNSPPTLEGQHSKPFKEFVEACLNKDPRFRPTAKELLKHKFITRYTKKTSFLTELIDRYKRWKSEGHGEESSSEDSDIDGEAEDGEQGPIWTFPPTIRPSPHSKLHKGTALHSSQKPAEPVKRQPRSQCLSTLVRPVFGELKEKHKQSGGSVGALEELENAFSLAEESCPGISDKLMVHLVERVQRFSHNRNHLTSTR
Sequence of PIK3R4 (Q99570 whole entry): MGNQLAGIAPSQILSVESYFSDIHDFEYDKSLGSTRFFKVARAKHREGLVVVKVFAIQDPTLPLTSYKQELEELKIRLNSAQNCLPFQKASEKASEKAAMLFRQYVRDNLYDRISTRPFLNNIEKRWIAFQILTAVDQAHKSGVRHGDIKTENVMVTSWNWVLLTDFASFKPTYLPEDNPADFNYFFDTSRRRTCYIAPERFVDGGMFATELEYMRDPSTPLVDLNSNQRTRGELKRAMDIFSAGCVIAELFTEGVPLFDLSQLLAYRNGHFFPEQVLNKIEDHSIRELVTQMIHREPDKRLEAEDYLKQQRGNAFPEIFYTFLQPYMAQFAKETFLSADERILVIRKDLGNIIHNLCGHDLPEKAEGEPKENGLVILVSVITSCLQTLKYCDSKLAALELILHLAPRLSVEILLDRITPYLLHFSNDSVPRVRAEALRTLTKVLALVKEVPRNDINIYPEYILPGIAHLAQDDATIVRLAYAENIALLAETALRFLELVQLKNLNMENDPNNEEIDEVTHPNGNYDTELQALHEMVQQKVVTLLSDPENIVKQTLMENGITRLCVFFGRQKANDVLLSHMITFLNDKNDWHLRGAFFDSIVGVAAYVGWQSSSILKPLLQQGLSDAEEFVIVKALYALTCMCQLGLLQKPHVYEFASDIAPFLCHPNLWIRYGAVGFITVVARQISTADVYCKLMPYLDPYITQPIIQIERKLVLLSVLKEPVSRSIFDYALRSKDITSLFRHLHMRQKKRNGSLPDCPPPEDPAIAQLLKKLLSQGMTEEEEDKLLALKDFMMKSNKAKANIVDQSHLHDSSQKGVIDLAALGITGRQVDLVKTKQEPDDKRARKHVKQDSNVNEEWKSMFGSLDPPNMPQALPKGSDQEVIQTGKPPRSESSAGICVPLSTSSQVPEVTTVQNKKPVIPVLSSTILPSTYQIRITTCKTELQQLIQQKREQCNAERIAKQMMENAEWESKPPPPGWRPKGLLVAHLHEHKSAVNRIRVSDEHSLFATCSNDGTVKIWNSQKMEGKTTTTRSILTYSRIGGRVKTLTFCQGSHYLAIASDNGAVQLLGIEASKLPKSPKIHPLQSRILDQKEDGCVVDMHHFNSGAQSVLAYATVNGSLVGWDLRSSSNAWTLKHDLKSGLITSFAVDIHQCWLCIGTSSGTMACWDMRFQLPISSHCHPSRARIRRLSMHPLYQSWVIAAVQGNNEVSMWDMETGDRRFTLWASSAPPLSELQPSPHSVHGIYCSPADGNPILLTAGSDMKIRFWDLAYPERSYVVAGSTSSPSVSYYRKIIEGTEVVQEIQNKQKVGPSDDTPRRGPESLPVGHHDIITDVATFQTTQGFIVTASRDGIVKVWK
Sequence of PAK1 (Q13153 whole entry): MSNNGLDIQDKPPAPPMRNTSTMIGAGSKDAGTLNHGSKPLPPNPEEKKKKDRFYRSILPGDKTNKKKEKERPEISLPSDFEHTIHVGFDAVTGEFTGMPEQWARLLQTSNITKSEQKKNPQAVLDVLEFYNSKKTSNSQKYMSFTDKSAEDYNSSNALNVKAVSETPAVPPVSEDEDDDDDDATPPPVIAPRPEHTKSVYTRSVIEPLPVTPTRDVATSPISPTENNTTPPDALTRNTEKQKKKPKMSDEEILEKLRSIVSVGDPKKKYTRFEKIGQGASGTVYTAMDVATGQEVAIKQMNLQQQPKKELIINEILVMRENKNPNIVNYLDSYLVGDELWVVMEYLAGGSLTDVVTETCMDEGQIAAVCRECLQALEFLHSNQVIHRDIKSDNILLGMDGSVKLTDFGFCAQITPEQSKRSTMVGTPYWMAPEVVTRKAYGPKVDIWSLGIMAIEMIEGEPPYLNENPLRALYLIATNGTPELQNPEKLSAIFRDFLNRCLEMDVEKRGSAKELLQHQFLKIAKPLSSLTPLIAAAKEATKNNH

Consider `O=C(NCCNC(=O)c1cc(Nc2cc(C3CC3)[nH]n2)nc(N2CCN(Cc3ccc(S(=O)(=O)F)cc3)CC2)n1)OC1CC/C=C/CCC1` (stereo unspecified), for which the pIC50 on ZAP70 (cell material: Jurkat cells) is 6.09; at ZAP70 (cell material: Jurkat lysate), below 4.52; on CAMK1D (cell material: Jurkat cells), 5.82; on UniProt Q9H093 it was below 4.52; at RNASEL, below 4.52; at BLK (cell material: Jurkat cells), 6.73. Further, the pIC50 on BLK (cell material: Jurkat lysate) is 5.1; on PAK1 it was below 4.52; on PIK3R4 it was below 4.52; at RIPK3 (cell material: Jurkat lysate) it was below 4.52; at RIOK1 (cell material: Jurkat cells), below 4.52; on RIOK1 (cell material: Jurkat lysate), below 4.52. The pIC50 on ITK (cell material: Jurkat cells) was 6.7; on ITK (cell material: Jurkat lysate), below 4.52; on UniProt O00506 (cell material: Lysate mix), below 4.52; at UHMK1, below 4.52.

In turn, `Cc1cc(Nc2cc(C(=O)NCCNC(=O)OC3CC/C=C/CCC3)nc(N3CCN(Cc4ccc(S(=O)(=O)F)cc4)CC3)n2)n[nH]1` (stereo unspecified) showed a pIC50 on UniProt Q9H093 below 4.52.

On TLK1 (cell material: Lysate mix), `CCNC(=O)c1cc(Nc2cc(C)[nH]n2)nc(N2CCN(Cc3ccc(S(=O)(=O)F)cc3)CC2)n1` registered a pIC50 of 4.92.

With `C#CCNC(=O)c1cc(Nc2cc(C3CC3)[nH]n2)nc(N2CCN(Cc3ccc(S(=O)(=O)F)cc3)CC2)n1`, the pIC50 at ZAP70 (cell material: Jurkat cells) was 6.43; on ZAP70 (cell material: Jurkat lysate), below 4.52; on CAMK1D (cell material: Jurkat cells) it was 5.94; on CAMK1D (cell material: Jurkat lysate), below 4.52; on RNASEL, below 4.52; at BLK (cell material: Jurkat cells) it was 6.82. Also, the pIC50 on BLK (cell material: Jurkat lysate) is 6.51; at PAK1, below 4.52; at TLK1 (cell material: Jurkat cells), 4.82; on PIK3R4, 4.69; on RIPK3 (cell material: Jurkat cells), 4.85; at RIPK3 (cell material: Jurkat lysate), 4.67. For the same molecule, the negative-log IC50 (pIC50) on RIOK1 (cell material: Jurkat cells) is below 4.52; at RIOK1 (cell material: Jurkat lysate), below 4.52; at ITK (cell material: Jurkat cells), 6.78; at ITK (cell material: Jurkat lysate), 5.4; on UniProt O00506 (cell material: Jurkat lysate), 6.59; at UHMK1 it was below 4.52.
